In US20240108740A1, “THERAPEUTIC COMPOSITIONS INCLUDING SPN10 AND USES THEREOF” (Stealth BioTherapeutics Inc., priority 2022, published 2024):
Residues, ends and D or L forms follow the SMILES beside them.

Legend:
Gαq mice = assay: Gαq overexpression-induced heart failure; assay type: in vivo, mouse; details: administered from 12 to 16 weeks of age
Description: It is anticipated that peptide conjugates, aromatic-cationic peptides or SPN10(s) (with or without aromatic-cationic peptides) will partially rescue Gαq overexpression-induced heart failure. Gαq protein is coupled to receptors for catecholamines and Ang II, all of which are known to be key mediators in hypertensive cardiovascular diseases. To extend these observations to a model of chronic catecholamine/Ang II stimulation, a genetic mouse model with cardiac specific overexpression of Gαq will be used, which causes heart failure in mice by 14-16 weeks of age. The Gαq mice in this study will have impairment of systolic function at 16 weeks age, which will be shown by a substantial decline in FS, with enlargement of the LV chamber, impairment of diastolic function indicated by decreased Ea/Aa, and worsening of myocardial performance index (MPI).

transplant patients = assay: Cyclosporine nephrotoxicity and organ health in transplant patients; assay type: in vivo, human; details: subjects receiving cyclosporine
Description: To prevent organ or tissue rejection after transplant, patients often receive a regimen of the immunosuppressive drug cyclosporine. Cyclosporine levels are established and maintained in the subject at levels to effectively suppress the immune system. However, nephrotoxicity is a concern for these subjects, and the level of the drug in the subject's blood is monitored carefully. Cyclosporine doses are adjusted accordingly in order to not only prevent rejection, but also to deter these potentially damaging side effects. Typically, an adult transplant patient receives cyclosporine as follows: IV: 2 to 4 mg/kg/day IV infusion once daily over 4 to 6 hours, or 1 to 2 mg/kg IV infusion twice a day over 4 to 6 hours, or 2 to 4 mg/kg/day as a continuous IV infusion over 24 hours. Capsules: 8 to 12 mg/kg/day orally in 2 divided doses. Solution: 8 to 12 mg/kg orally once daily. In some patients, doses can be titrated downward with time to maintenance doses as low as 3 to 5 mg/kg/day. […]
Transplant subjects receiving cyclosporine pursuant to standard pre- and post-transplant procedures will be divided into groups. […] Subjects will be monitored for health and function of the transplanted tissue or organ, as well as the incidence and severity of nephrotoxicity often seen with prolonged cyclosporine administration.

[1] = test system: human retinal epithelial cells (HREC); assay: Example 55: high glucose-induced injury; assay type: cell-based
Method: Methods of HREC culture useful in the studies of the present technology are known. See generally, Li, et al., Clin. Ophthal. Res. 23:20-2 (2005); Premanand, et al., Invest. Ophthalmol. Vis. Sci. 47:2179-84 (2006). Briefly, HREC cells will be cultured under one of these conditions: 1) normal control; 2) 30 mM glucose; 3) 30 mM glucose+peptide conjugates; 4) 30 mM glucose+an aromatic-cationic peptide; 5) 30 mM glucose+SPN10; 6) 30 mM glucose+SPN10+aromatic-cationic peptides. Survival of HRECs in high glucose co-treated with various concentrations of peptide conjugates (10 nM, 100 nM, 1 μM, 10 μM) will be measured by flow cytometry using Annexin V. See generally, Koopman, et al., Blood 84:1415 (1994); Homburg, et al., Blood X5: 532 (1995); Vermes, et al. J. Immunol. Meth. 184:39 (1995); Fadok, et al., J. Immunol. 148:2207 (1992).
The survival of HRECs in high glucose co-treated with peptide conjugates, aromatic-cationic peptides, or SPN10(s) with or without aromatic-cationic peptides will be tested at 24 hours and 48 hours.
It is expected that glucose (30 mmol/L) will induce cytochrome c release from the mitochondria of HRECs. Fixed HRECs will be immunolabeled with a cytochrome c antibody and a mitochondrial specific protein antibody (HSP60).

CD36 = assay: Example 4: CD36 mRNA in post-ischemic brain (real time PCR); assay type: in vivo, mouse; details: treatment at 0 and 6 hours after 30 minute ischemia
Method: Wild-type mice will be given saline vehicle (Veh, i.p., n=6), peptide conjugates (5 mg/kg, i.p., n=6), aromatic-cationic peptides (e.g., an equivalent molar dose of aromatic-cationic peptide based on the concentration of the aromatic-cationic peptide administered in the peptide conjugate treatment group), SPN10(s) (e.g., an equivalent molar dose of SPN10 based on the concentration of SPN10 administered in the peptide conjugate treatment group), or SPN10(s) in combination with aromatic-cationic peptides (e.g., an equivalent molar dose of SPN10 based on the concentration of SPN10 administered in the peptide conjugate treatment group and an equivalent molar dose of aromatic-cationic peptide based on the concentration of aromatic-cationic peptide administered in the peptide conjugate treatment group) at 0 and 6 hours after a 30 minute period of ischemia. Levels of CD36 mRNA in post-ischemic brain will be determined using real time PCR.

Sprague-Dawley rats = assay: Example 43: cisplatin-induced acute renal injury; assay type: in vivo, rat; details: cisplatin 7 mg/kg i.p.
Method: Experimental Protocol: Sprague-Dawley rats (350-400 g) will be given a single dose of cisplatin (7 mg/kg) intraperitoneally (i.p.) on Day 1. Subjects will receive peptide conjugates (3 mg/kg) (n=8), aromatic-cationic peptides (an equivalent molar dose of aromatic-cationic peptide based on the concentration of the aromatic-cationic peptide administered in the peptide conjugate treatment group) (n=8), SPN10(s) (an equivalent molar dose of SPN10 based on the concentration of SPN10 administered in the peptide conjugate treatment group) (n=8), SPN10(s) in combination with aromatic-cationic peptides (e.g., an equivalent molar dose of SPN10 based on the concentration of SPN10 administered in the peptide conjugate treatment group and an equivalent molar dose of aromatic-cationic peptide based on the concentration of aromatic-cationic peptide administered in the peptide conjugate treatment group) (n=8) or saline vehicle (n=8) subcutaneously just prior to cisplatin administration, and once daily for 3 additional days. Subjects will be placed in metabolic cages for the final 24 hours of the trial for urine collection. At the end of the trial, blood samples will be withdrawn from tail veins and the kidneys harvested.
Renal function: Renal function will be assessed by measuring blood urea nitrogen (BUN), serum creatinine, urine creatinine, and urine protein. GFR will be estimated from creatinine clearance, which will be determined from serum and urinary creatinine, and urinary volume.
Renal Histology: Kidneys will be fixed in 10% neutral-buffered formalin and embedded in paraffin wax for sectioning. Three-micron sections will be stained with periodic acid-Schiff (PAS) and analyzed by light microscopy.

Question: With `N=C(N)NCCC[C@H](NC(=O)[C@@H](N)Cc1c[nH]c2ccccc12)C(=O)N[C@@H](Cc1c[nH]c2ccccc12)C(=O)N[C@@H](CCCCN)C(N)=O` [SPN10, H-L-Trp-L-Arg-L-Trp-L-Lys-NH2] (H-WRWK-NH2) as the compound, how does the LV chamber enlargement (Gαq mice) read?
Answer: Its LV chamber enlargement is “slightly reduced”.

Question: And the “systolic function and myocardial performance” value (Gαq mice)?
Answer: The value was “significantly ameliorate systolic function and improve myocardial performance”.

Question: What about the “health of transplanted organ or tissue, cyclosporine dosage maintained” value (transplant patients) of the same compound?
Answer: The value was “healthier transplanted organ or tissue”.

Question: What about the “production of ROS” value ([1]; 30 mM glucose) of the same compound?
Answer: The value was “reduce the production of ROS”.

Question: And the “survival of HRECs in high glucose (Annexin V)” value ([1]; 30 mM glucose, 24 hours and 48 hours)?
Answer: The value was “significantly improved”.

Question: And the “glucose-induced release of cytochrome c from mitochondria to cytoplasm” value ([1]; 30 mmol/L glucose, 24 or 48 hours)?
Answer: The value was “prevent or attenuate this effect”.

Question: And the “loss of mitochondrial membrane potential by high glucose (TMRM)” value ([1]; 24 or 48 hours)?
Answer: The value was “prevent or attenuate this effect”.

Question: What about the “CD36 mRNA in the ipsilateral brain” value (CD36) of the same compound?
Answer: Its value is “significantly reduced”.

Question: And the “increase in BUN after cisplatin” value (Sprague-Dawley rats)?
Answer: The value was “attenuate or prevent this effect”.

Question: What about the “increase in serum creatinine after cisplatin” value (Sprague-Dawley rats) of the same compound?
Answer: Its value is “attenuate or prevent this effect”.

Question: And the “reduction in body weight after cisplatin” value (Sprague-Dawley rats)?
Answer: Its value is “attenuate or prevent this effect”.
